What all share (assay type): in vivo, human
Data set [1] is described as follows: LNS8801 pharmacokinetics in patients with advanced cancer (plasma concentration by mass spectrometry). The procedure:
Patients with advanced cancer were dosed with 10, 40, and 125 mg of LNS8801 in a capsule on three consecutive days/week. Blood was collected from patients pre-dose and at 0.5, 1, 2, 4, 7, 10, and 24 hours after dosing. Samples were analyzed by mass spectrometry for the concentration of LNS8801. […] LNS8801 is well absorbed, producing plasma exposures that are predicted to be efficacious, even at the lowest dose evaluated. Half-life in humans is approximately 10 hours.

Data set [2] concerns c-Myc positive tumor cells. The data set is described as follows: c-Myc immunohistochemistry on pre- and on-treatment tumor biopsies. As to conditions: on-treatment biopsies 8-19 days after start vs pre-treatment; most samples. From the text:
Pre-treatment biopsies were collected within 28 days of initiating treatment, and on-treatment biopsies were collected 8-19 days after LNS8801 treatment began. Tumor samples were formalin-fixed, paraffin-embedded, sectioned, and assessed for c-Myc positive tumor cells by immunohistochemistry by a blinded pathologist.

For data set [3], the system named is prolactin (systemic marker of GPER activity). Briefly: Prolactin induction in blood of patients after LNS8801 dosing, versus best RECIST response. The procedure: Blood was collected from patients pre-dose and at 0.5, 1, 2, 4, 7, and 10 hours after dosing and analyzed for the concentration of prolactin. Prolactin induction was calculated by dividing the average of the 4 hour through 10 hour timepoints by the average of pre-dose to 2 hour timepoints. Prolactin-induction was plotted with the best RECIST response of target lesions, and linear regression was performed.
Blood was collected from patients pre-dose and 0.5, 1, 2, 4, 7, and 10 hours after dosing and analyzed for the concentration of prolactin (PRLX). Prolactin induction was calculated by dividing the average of the 4 hour through 10 hour timepoints by the average of pre-dose to 2 hour timepoints.

As to `CC(=O)c1ccc2c(c1)[C@@H]1C=CC[C@@H]1[C@H](c1cc3c(cc1Br)OCO3)N2` [LNS8801, 1-((3aS,4R,9bR)-4-(6-bromobenzo[d][1,3]dioxol-5-yl)-3a,4,5,9b-tetrahydro-3H-cyclopenta[c]quinolin-8-yl)ethan-1-one], in data set [1] (10, 40, 125 mg capsule), the “Absorption / plasma exposure” value is “well absorbed”. Besides, the half-life (usually the time in which the quantity being followed falls by half) in data set [1] (human, plasma, oral, humans, 10, 40, 125 mg capsule, three consecutive days/week) was roughly 10 h. Moreover, the “Change in c-Myc positive tumor cells after treatment” value in data set [2] is on record as “dramatic depletion in c-Myc positive tumor cells”. In addition, the “Patients lacking a prolactin response (<1.25-fold induction)” value in data set [3] (evaluable patients, every such patient had progressive disease) is given as 35%. The “Change in prolactin levels on treatment” value in data set [3] (patients with progressive disease under RECIST) is listed as “reduction or no change in prolactin levels”.
